Laboratory results: publication PMC9494960, “Antiamoebic Activity of Imidazothiazole Derivatives against Opportunistic Pathogen Acanthamoeba castellanii” (Antibiotics, 2022)

Tests used:
[1] = system: A. castellanii genotype T4 (ATCC 50492) trophozoites; assay: Amoebicidal assay (Trypan blue exclusion, haemocytometer counting); format: cell-based, Acanthamoeba castellanii; settings: for Amoebicidal Activity Inhibition % ± SEM: 50 µM concentration, Supplementary Table S1; for amoebicidal effects / antiamoebic activity against A. castellanii: 50 µM, 24 h, 30 °C; for IC50: tested at 12.5, 25, 50 and 100 µM against A. castellanii
Description: A. castellanii genotype T4 (ATCC 50492) trophozoites were used in this study. The amoebae were axenically cultivated at 30 °C in T-75 cm^3 culture flask using a proteose-peptone yeast extract-glucose (PYG) broth culture. Upon confluency, amoeba cultured flask was placed on ice for 10 min followed by gently tapping to dislodge the adhered trophozoites. Next, culture was centrifuged at 3000× g for 5 min. The supernatant was discarded and the pellet was re-suspended in 1 mL of Roswell Park Memorial Institute (RPMI) media. Finally, amoebae were counted via haemocytometer microscopically and the desired initial inoculum (5 × 10^5) was adjusted and used in different assays. Different molecules were tested against A. castellanii to examine their antiamoebic effects as previously reported. Briefly, A. castellanii (5 × 10^5) were incubated with 50 µM of the tested compounds for 24 h at 30 °C with a final assays volume of 0.5 mL in a 24-well plate. For controls, amoebae cultured in RPMI alone and with 0.25% sodium dodecyl sulfate (SDS) was taken as negative and positive control, respectively. Finally, each well was stained with Trypan blue (0.1%) and viable amoebae trophozoites were enumerated by haemocytometer. In some trails, these compounds were tested at different concentrations (12.5, 25, 50 and 100 µM) to determine their 50% inhibitory concentration (IC50) against A. castellanii.

[2] = system: A. castellanii binding to HeLa cells; assay: Adhesion assay: amoebae binding to human cells; format: cell-based, Acanthamoeba castellanii; settings: amoebae pre-treated with 50 µM for 2 h; 60 min on HeLa monolayer
Description: Adhesion assays were performed to determine how the tested molecules affect the binding capability of amoebae to human cells. Firstly, A. castellanii (5 ×10^5) trophozoites were treated with 50 µM of the compounds in serum-free RPMI medium at 30 °C for 2 h. Next, pre-treated amoebae were centrifuged at 3000× g for 5 min and re-suspended the amoeba in 200 µL of RPMI medium. The total assay volume including pre-treated amoeba was transferred to a confluent HeLa cell monolayer cultured in 96-well plates. For control, amoebae trophozoites alone were added to HeLa cell monolayer. The plates were incubated for 60 min at 37 °C with 5% CO2 and 95% humidity and amoebae (unbound) were then counted by haemocytometer. Percent bound amoebae was calculated using the following formula: % amoebae (bound) = 100 − amoebae (unbound)(1)

[3] = system: A. castellanii trophozoites; assay: Encystation assay; format: cell-based, Acanthamoeba castellanii; settings: 50 µM, 16% glucose, 30 °C, 48–72 h; negative control 100%
Description: Encystation assays were performed to determine the effects of the tested compounds to prevent the differentiation of A. castellanii trophozoites into the cyst form and 50 µM of the tested compounds were utilized. Briefly, A. castellanii (1 × 10^6) trophozoites were incubated with these compounds with 16% filter-sterilized glucose (as encystation medium) at 30 °C 48–72 h. A. castellanii cultured alone in 16% glucose was taken as negative control. After this incubation, 0.1% sodium dodecyl sulfate (SDS) was added to each well and agitated the plate for 20 min. The SDS resistant cysts were enumerated using a haemocytometer and data was recoded.

human cell lines = assay: MTT assay (EC50/CC50 and MNTD90); format: cell-based; settings: for CC50: 50% effective/cytotoxic concentration (CC50), tested at 12.5–100 µM; for EC90: Maximum Non-Toxic Dose, read-out: MNTD/EC90
[4] = system: A. castellanii-mediated HeLa cell death; assay: Amoeba-mediated host cell cytotoxicity (cytopathogenicity assay, LDH); format: cell-based, Acanthamoeba castellanii; settings: amoebae pre-treated with 50 µM for 2 h; HeLa overnight; negative control amoeba + cells 100%
Description: Cytopathogenicity assays were accomplished to determine the amoeba-mediated host cell death. A. castellanii (5 × 10^5) trophozoites were treated with 50 µM of the tested molecules at 30 °C for 2 h. Culture containing pre-treated amoebae was centrifuged at 3000× g for 5 min and pellet was re-suspended in 200 µL of serum free RPMI. The whole assay volume with pre-treated amoebae was transferred to HeLa cell monolayer cultured in a 96 well plates. Next, the plates were kept for overnight at 37 °C with 95% humidity and 5% CO2. Finally, amoeba-mediated host cell cytotoxicity was evaluated indirectly by measuring the amount of LDH enzyme released into cell media by damaged cells, as reported earlier.

V600E-B-RAF = system: V600E-B-RAF; set-up: method as in PMID 32962435; settings: cited from earlier work
C-RAF = system: C-RAF; set-up: method as in PMID 32962435; settings: cited from earlier work
A. castellanii = system: A. castellanii; set-up: method as in PMID 34959694; settings: cited from earlier work
HeLa cells = assay: In vitro cytotoxicity, lactate dehydrogenase (LDH) assay; format: cell-based, human; settings: 50 µM, 24 h, LDH release
Description: HeLa cells were obtained from the American Type Culture Collection (ATCC CCL-2) and grown at 37 °C with 5% CO2 and 95% humidity in RPMI supplemented with 10% fetal bovine serum (FBS), 1% minimum essential medium amino acids, 1% Penicillin-Streptomycin (Pen-Strep) and 1% L-glutamine. The media was removed aseptically, and cells were detached enzymatically using 2 mL of trypsin EDTA. Next, culture containing dislodged cells was centrifuged at 2500× g for 5 min. The cell pellet was resuspended in the above-mentioned media, subsequently added into 96-well plates and utilized in different assays. In vitro cytotoxic effects of the tested molecules were determined using Lactate dehydrogenase (LDH) assays against human cells. In brief, 50 µM concentration of the tested compounds were incubated with HeLa cells monolayer for 24 h at 37 °C with 5% CO2 in humidified conditions. After this incubation, 0.1% triton X-100 was added to the positive control wells and incubated the plate for 45 min at 37 °C. Then, an equal volume of cells supernatant containing liberated LDH enzyme was mixed with an equal volume of LDH kit reagents (Cytotoxicity Detection kit; Roche Diagnostics, Indianapolis, IN, USA). The positive and negative controls were cell monolayers treated with 0.1 percent Triton X-100 and in RPMI alone. The plate was subjected to multi-plate reader and absorbance was recorded at 490 nm. The percent cytotoxicity was calculated using given formula; % Cell cytotoxicity = sample value − negative control value/positive control value − negative control value × 100.

SMILES | Amoebicidal Activity Inhibition % ± SEM [1] | amoebicidal effects / antiamoebic activity against A. castellanii [1] [%] | IC50 [1] [µM] | inhibition of amoebae binding to human cells [2] [%] | encystation blocked (trophozoites prevented from converting into cysts) [3] [%] | CC50 (human cell lines) [µM] | EC90 (human cell lines) [µM] | amoeba-mediated host cell death reduced up to [4] [%] | inhibitory effects against V600E-B-RAF kinase (V600E-B-RAF) | inhibitory effects against C-RAF kinase (C-RAF) | concentration that prevented excystment in A. castellanii (A. castellanii) [µM] | cytotoxicity against HeLa cells (HeLa cells) [%]
COc1cccc(-c2nc3sccn3c2-c2ccnc(NCCNC(=O)Nc3cccc(C(F)(F)F)c3)n2)c1 [Compound 1m] | 69.17% ± 2.39% | 70 | 30 | 61 | 72 | 313 | 29.5 | 33 | modest inhibitory effects | modest inhibitory effects | – | –
O=C(NCCNc1nccc(-c2c(-c3cccc(O)c3)nc3sccn23)n1)c1ccc(N2CCOCC2)c(C(F)(F)F)c1 [Compound 1zb] | 67.00% ± 3.19% | 67 | 32.4 | 55 | 78 | 434 | 24.1 | 46 | – | – | – | –
O=C(NCCNc1nccc(-c2c(-c3cccc(O)c3)nc3sccn23)n1)c1cccc(C(F)(F)F)c1 [Compound 1z] | 52.53% ± 1.67% | – | 44.8 | 42 | 60 | 412 | 80.9 | – | – | – | – | –
CC(C)(C)OC(=O)N1CCN(CCNc2nccc(-c3c(-c4ccc(F)cc4)nc4sccn34)n2)S1(=O)=O [Compound 1l] | 47.41% ± 1.67% | – | 59.9 | 42 | – | – | – | – | – | – | – | –
O=C(NCCNc1nccc(-c2c(-c3ccc(F)cc3)nc3sccn23)n1)c1cc(C(F)(F)F)cc(C(F)(F)F)c1 [Compound 1i] | 55.05% ± 1.25% | 55 | 43.1 | 42 | 60 | 1410 | 90.9 | 45 | – | – | – | –
CNCC(=O)OCc1cccnc1N(C)C(=O)OC(C)[n+]1cnn(C[C@](O)(c2cc(F)ccc2F)[C@@H](C)c2nc(-c3ccc(C#N)cc3)cs2)c1.O=S(=O)([O-])O (stereo partly drawn) [isavuconazonium sulfate] | – | – | – | – | – | – | – | – | – | – | 136 | –
COc1cccc(NC(=O)NCCNc2nccc(-c3c(-c4ccc(F)cc4)nc4sccn34)n2)c1 [Compound 1a] | 7.70% ± 3.57% | – | – | – | – | – | – | – | – | – | – | 35
COc1cccc(-c2nc3sccn3c2-c2ccnc(NCCNC(=O)c3cccc(C(F)(F)F)c3)n2)c1 [Compound 1q] | 52.41% ± 5.31% | – | 47.7 | – | – | 584 | 30.6 | – | – | – | – | 38
O=C(NCCNc1nccc(-c2c(-c3cccc(O)c3)nc3sccn23)n1)Nc1cc(C(F)(F)F)cc(C(F)(F)F)c1 [Compound 1w] | 50.25% ± 4.67% | – | 46.3 | – | – | 304 | 36.1 | – | – | – | – | –
CN1CCN(CCNc2nccc(-c3c(-c4cccc(O)c4)nc4sccn34)n2)S1(=O)=O [Compound 1zd] | 58.00% ± 3.41% | 58 | 41 | 42 | 62 | – | 145 | – | – | – | – | 37
COc1ccc(C(=O)NCCNc2nccc(-c3c(-c4ccc(F)cc4)nc4sccn34)n2)cc1OC [Compound 1e] | 44.50% ± 1.79% | – | – | 40 | – | – | – | – | – | – | – | –
COc1cccc(-c2nc3sccn3c2-c2ccnc(NCCNC(=O)c3cc(C(F)(F)F)cc(C(F)(F)F)c3)n2)c1 [Compound 1r] | 44.91% ± 8.42% | – | 64.7 | – | – | 183 | 33.9 | – | – | – | – | –
